The target in experiment [1] is T1, α1β2γ2 recombinant GABA-A receptors (Homo sapiens, UniProt P14867+P18507+P47870).
T1 construct: expressed in transfected cells; host or cells: Xenopus laevis oocytes injected with cRNA
Put plainly: cell-based. The following applies: α1β2γ2.

The target in experiment [2] is T2, α1β1 GABA-A recombinant receptors (Homo sapiens, UniProt P14867+P18505).
T2 construct: expressed in transfected cells; host or cells: Xenopus laevis oocytes injected with cRNA
T2 sequence (P14867 28-456): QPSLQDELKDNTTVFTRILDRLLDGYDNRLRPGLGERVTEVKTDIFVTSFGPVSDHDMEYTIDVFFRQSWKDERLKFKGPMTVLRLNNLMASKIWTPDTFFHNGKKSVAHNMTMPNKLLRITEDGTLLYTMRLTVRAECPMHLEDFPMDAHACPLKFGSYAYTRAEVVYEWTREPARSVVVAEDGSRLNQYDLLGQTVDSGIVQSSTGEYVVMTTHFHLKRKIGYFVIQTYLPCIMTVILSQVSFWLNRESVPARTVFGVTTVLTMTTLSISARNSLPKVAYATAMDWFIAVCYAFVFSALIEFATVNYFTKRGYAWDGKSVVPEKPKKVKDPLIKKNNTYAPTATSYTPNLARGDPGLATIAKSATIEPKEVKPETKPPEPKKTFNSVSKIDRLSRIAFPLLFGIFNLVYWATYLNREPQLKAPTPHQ
T2 sequence (P18505 26-474): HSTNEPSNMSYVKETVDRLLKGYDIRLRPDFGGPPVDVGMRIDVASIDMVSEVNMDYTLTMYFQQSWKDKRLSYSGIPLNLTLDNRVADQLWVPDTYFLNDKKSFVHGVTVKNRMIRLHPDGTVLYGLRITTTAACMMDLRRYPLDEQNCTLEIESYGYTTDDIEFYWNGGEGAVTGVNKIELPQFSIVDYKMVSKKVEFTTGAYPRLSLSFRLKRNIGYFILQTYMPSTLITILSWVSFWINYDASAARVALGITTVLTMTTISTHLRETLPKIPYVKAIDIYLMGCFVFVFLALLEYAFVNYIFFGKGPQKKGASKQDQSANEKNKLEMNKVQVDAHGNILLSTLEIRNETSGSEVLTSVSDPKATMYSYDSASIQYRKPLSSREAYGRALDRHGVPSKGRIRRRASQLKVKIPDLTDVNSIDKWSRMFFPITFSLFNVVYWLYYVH
Nature of the experiment: Two-electrode voltage clamp, modulation of GABA currents in Xenopus oocytes. It is filed as cell-based. Here is the method: (§1) The compounds synthesized are also studied for their ability to cause opening of the channel of the GABA-A receptor or to allosterically modulate the currents caused by GABA. For this purpose, the GABA-A recombinant receptors are expressed in Xenopus oocytes. Briefly, Xenopus laevis oocytes are prepared, injected and defolliculated and the currents are recorded in the way described (E. Sigel, J. Physiol., 1987, 386, 73 and E. Sigel, R. Baur, G. Trube, H. Möhler, P. Malherbe, Neuron, 1990, 5, 703). The oocytes are injected with 50 nl of cRNA dissolved in 5 mM of K-Hepes (pH 6.8). This solution comprises the transcripts coding for the various subunits at a concentration of 10 nM for α1, 10 nM for β2 and 50 nM for γ2. The RNA transcripts are synthesized from linearized plasmids encoding the desired protein using the message machine kit (Ambion) according to the recommendations of the manufacturers. A poly(A) tail of approximately 300 residues is added to the transcripts using yeast poly(A) polymerase (USB or Amersham). The cRNA combinations are coprecipitated from ethanol and stored at −20° C. The transcripts are quantified on agarose gels, after having been stained with the RNA stain Radiant Red (Bio-Rad), by comparing the intensities of the stainings with various amounts of molecular weight markers (RNA-Ladder, Gibco-BRL). The electrophysiological experiments are carried out by the two-electrode voltage clamp method at a holding potential of −80 mV. The medium comprises 90 mM of NaCl, 1 mM of KCl, 1 mM of MgCl2, 1 mM of CaCl2 and 10 mM of Na-Hepes (pH 7.4). GABA is applied for 20 s and a washing period of 4 min is allowed in order to provide for the complete […]. The perfusion system is cleaned between the applications of the compounds by washing with dimethyl sulfoxide to prevent contamination. The compounds are applied at a concentration of 100 microM in the absence of GABA in order to see whether they can act as channel agonists. To study the allosteric modulation, GABA is first of all applied alone and then in combination with either […] or 100 microM of compounds.
(§2) Thus, it is observed that the compound R-30 (100 μM) produces a 5 times greater stimulation of the GABA currents in the receptors comprising the β2 subunits with respect to the receptors carrying only the β1 subunit (table 4). At 10 μM, the compound R-30 produces a stimulation only in the receptors comprising the β2 subunit. The anticonvulsant loreclezole similarly enhances the activity of the GABA-A receptor by interacting with a site present on the receptors comprising the β2 subunit (and the β3 subunit) but not present on the receptors comprising the β1 subunit (P. B. Wingrove, K. A. Wafford, C. Bain, P. J. Whiting, Proc. Natl. Acad. Sci. USA, 1994, 91, 4569). […] The compounds of the present invention therefore appear to stimulate the activity of GABA by acting on a different site from that of α-EMTBL and related compounds, despite the apparent structural resemblance of these two classes of compounds.
In general terms: In two-electrode clamp one electrode senses voltage and the other passes current.

Experiment [3] concerns α2β2 GABA-A recombinant receptors. Described as above. In kind it is cell-based. As to conditions: for % of stimulation of the GABA currents: α2β2. As for the experimental part: as §1, §2
Experiment [4] deals with GABA-A receptors comprising β2 or β3 subunits versus β1 subunit. As to conditions: Wingrove et al. 1994; cited from earlier work.

T1 sequence (P47870 25-512 limits assumed, one chain of several): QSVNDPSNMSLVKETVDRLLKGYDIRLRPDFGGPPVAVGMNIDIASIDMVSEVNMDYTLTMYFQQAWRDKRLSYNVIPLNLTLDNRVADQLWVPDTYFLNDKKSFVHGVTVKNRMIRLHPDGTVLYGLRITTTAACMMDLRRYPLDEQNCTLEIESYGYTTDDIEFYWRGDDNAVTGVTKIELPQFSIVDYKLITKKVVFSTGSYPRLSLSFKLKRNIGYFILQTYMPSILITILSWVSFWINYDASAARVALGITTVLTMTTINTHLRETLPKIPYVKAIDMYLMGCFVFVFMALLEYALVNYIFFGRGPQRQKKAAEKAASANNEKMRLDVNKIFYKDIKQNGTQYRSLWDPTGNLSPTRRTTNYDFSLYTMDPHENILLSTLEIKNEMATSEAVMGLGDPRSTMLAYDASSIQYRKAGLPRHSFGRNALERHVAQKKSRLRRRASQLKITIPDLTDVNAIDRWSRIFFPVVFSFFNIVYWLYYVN
T1 sequence (P18507 40-475, one chain of several): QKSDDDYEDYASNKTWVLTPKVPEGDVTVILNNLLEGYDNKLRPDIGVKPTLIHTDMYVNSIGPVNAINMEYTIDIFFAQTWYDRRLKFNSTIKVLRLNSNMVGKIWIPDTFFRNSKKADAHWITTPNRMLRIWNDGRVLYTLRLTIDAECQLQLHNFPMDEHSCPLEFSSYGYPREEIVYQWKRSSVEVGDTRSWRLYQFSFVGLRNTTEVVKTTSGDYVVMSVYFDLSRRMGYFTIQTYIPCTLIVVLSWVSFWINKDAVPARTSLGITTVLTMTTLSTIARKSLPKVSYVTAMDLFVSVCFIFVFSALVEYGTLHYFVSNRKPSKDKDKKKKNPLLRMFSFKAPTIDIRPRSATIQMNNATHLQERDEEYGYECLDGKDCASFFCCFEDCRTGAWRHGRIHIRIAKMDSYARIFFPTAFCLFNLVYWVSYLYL

Regarding “3-(R)-Benzyloxycarbonylamino-3,3-di(C-propyl)-1,4-butyrolactone [Compound R-30]”, the “% of stimulation of the GABA currents” value in experiment [1] (10 μM) is reported as “+51 ± 94%”; in experiment [1] (100 μM) it was “+279 ± 94%”; in experiment [2] (10 μM), −5 ± 11%; in experiment [2] (100 μM), “+92 ± 28%”; in experiment [3] (10 μM), “+78 ± 4%”; in experiment [3] (100 μM) it was “+588 ± 166%”. The “power relative to the corresponding S isomer in stimulating GABA currents” value in experiment [1] is recorded as “twice as powerful”. The “times greater stimulation of the GABA currents in receptors comprising β2 subunits with respect to β1 only” value in experiment [3] (100 μM) is reported as 5 times.

As for `Cl/C(=C\n1cncn1)c1ccc(Cl)cc1Cl` [loreclezole], the “affinity for receptors comprising β2 or β3 subunits relative to receptors comprising the β1 subunit” value in experiment [4] is recorded as 300 times.

The values are drawn from patent publication US6660769B1, “N substituted 3-amino-2,2-di-c-alkyl-1,4-butyrolactones and 1,4-thiobutyrolactones for use as promoter of γ-aminobutyric acid activity and for treating nervous disorders and preparation method” (priority 1999, dated 2003).
